Test results taken from patent US20210347709A1, “RADIOFLUORINATED GPC3-BINDING PEPTIDES FOR PET IMAGING OF HEPATOCELLULAR CARCINOMA” (University of Southern California, priority 2020, published 2021).

Key:
Type in all cases: in vivo, nude mice
[1] = MicroPET/CT imaging and biodistribution, McA-RH7777 tumor model; settings: both sexes, BALB/c nude, mouse, iv, 5.55 MBq, total radioactivity; for tissue to tissue ratio at 0.5 h / tissue to tissue ratio at 1 h / tissue to tissue ratio at 2 h: McA-RH7777 (GPC3−) tumor bearing mice; for tissue to tissue ratio at 0.5 h / tissue uptake at 0.5 h: 30 min; for tissue to tissue ratio at 1 h / tissue uptake at 1 h: 60 min; for tissue uptake at 0.5 h / tissue uptake at 1 h / tissue uptake at 2 h: McA-RH7777 (GPC3−) tumor model, PET; for tissue uptake at 2 h / tissue to tissue ratio at 2 h: 120 min
Procedure: (§1) MicroPET/CT Imaging and Biodistribution. MicroPET/CT scans were carried out using a Siemens Inveon PET/CT scanner (Siemens, Germany). Tumor-bearing mice (n=3/group) were intravenously injected with 5.55 MBq of Al[^18F]F-GP2076 or Al[^18F]F-GP2633 under isoflurane anesthesia. A ten-minute static PET scan for each animal was acquired at 30, 60, and 120 min after the injection. 3-Dimensional ordered subset expectation maximization (3D-OSEM) algorithm was used for the PET reconstruction, and CT was applied for attenuation correction. Detailed procedures for the microPET/CT imaging and biodistribution are provided in ESM.
(§2) All animal experiments were conducted according to the guideline of the Nanfang Hospital Animal Ethics Committee at the Southern Medical University. Male or female BALB/c nude mice (about 4-6 weeks old) were obtained from the Laboratory Animal Center at Southern Medical University. The HepG2 and McA-RH7777 HCC xenografts were established by subcutaneous injection of 1×10^6 tumor cells into the left shoulder of nude mice. The animals were used for in vivo studies when the tumors reached a size of 0.5-1 cm in diameter (4-6 weeks after inoculation).
(§3) Inveon Research Workplace (IRW) 3.0 software (Siemens, Germany) was used to measure the regions of interest (ROIs) determined by superimposing the ellipsoid volume of interest (VOI) on the target tissues. The radioactivity concentrations were measured by the mean pixel intensity within each VOI and converted to dose/ml using a calibration constant. Assuming the tissue density of 1 g/ml, the ROI was then converted to dose per gram and normalized as the percent injected dose per gram (% ID/g). Tumor-to-nontarget uptake ratios, including tumor-to-muscle (T/M), tumor-to-liver (T/L), and tumor-to-kidneys (T/K) ratios, were calculated by dividing the radioactivity uptake in tumor by that in the corresponding normal tissue or organ.

[2] = system: GPC3-negative McA-RH7777 tumor; test: as above; settings: for Tumor-to-muscle (T/M) uptake ratio: McA-RH7777 (GPC3−) tumor bearing mice; for Kidneys uptake / Liver uptake / Tumor uptake: McA-RH7777 (GPC3−) tumor model, PET; for Tumor uptake: decay-corrected
Procedure: as §1, §2, §3

[3] = MicroPET/CT imaging and biodistribution, HepG2 tumor model; settings: both sexes, BALB/c nude, mouse, iv, 5.55 MBq, total radioactivity; for tissue to tissue ratio at 1 h / tissue to tissue ratio at 0.5 h / tissue to tissue ratio at 2 h: HepG2 (GPC3+) tumor bearing mice; for tissue to tissue ratio at 1 h / tissue uptake at 1 h: 60 min; for tissue to tissue ratio at 0.5 h / tissue uptake at 0.5 h: 30 min; for tissue to tissue ratio at 2 h / tissue uptake at 2 h: 120 min; for tissue uptake at 0.5 h / tissue uptake at 1 h / tissue uptake at 2 h: HepG2 (GPC3+) tumor model, PET
Procedure: as §1, §2, §3

[4] = McA-RH7777 tumor / muscle, read-out: Tumor-to-muscle (T/M) uptake ratio
[5] = intestine, read-out: Intestinal uptake
[6] = decay-corrected, read-out: Tumor uptake
[7] = kidneys, read-out: Kidneys uptake
[8] = muscle, read-out: Muscle uptake
[9] = tumor / kidneys, read-out: Tumor-to-kidneys (T/K) uptake ratio
[10] = tumor / liver, read-out: Tumor-to-liver (T/L) uptake ratio
[11] = HepG2 tumor / liver, read-out: Tumor-to-liver (T/L) uptake ratio
[12] = HepG2 tumor / muscle, read-out: Tumor-to-muscle (T/M) uptake ratio

Q: Which tissue to tissue ratio at 0.5 h [1, 4] does the source give for `CC(C)C[C@H](NC(=O)[C@H](CCCNC(=N)N)NC(=O)[C@H](CC(N)=O)NC(=O)[C@H](CC(=O)O)NC(=O)[C@H](CCCNC(=N)N)NC(=O)CNC(=O)CNC(=O)CNC(=S)Nc1ccc(CC2CN(CC(=O)O)CCN(CC(=O)O)CCN2CC(=O)O)cc1)C(=O)N[C@@H](CC(N)=O)C(=O)N[C@H](C(=O)NCC(=O)NCC(=O)N[C@H](C(=O)N[C@@H](Cc1ccc(O)cc1)C(=O)N[C@@H](Cc1ccccc1)C(=O)N[C@@H](CC(C)C)C(=O)N[C@H](C(=O)N[C@H](C(=O)N[C@@H](CCCNC(=N)N)C(=O)N[C@@H](CCC(N)=O)C(=O)O)[C@@H](C)O)[C@@H](C)O)[C@@H](C)O)C(C)C` (single isomer, unassigned) [Al[^18F]F-GP2633] here?
A: 3.87 ± 1.97

Q: And the tissue to tissue ratio at 1 h [1, 4]?
A: 6.2 ± 2.67

Q: And the tissue uptake at 0.5 h ([1]; bone, read-out: Bone uptake)?
A: 1.04 %ID/g

Q: And the tissue uptake at 1 h ([1]; bone, read-out: Bone uptake)?
A: 0.8 %ID/g

Q: What about the tissue uptake at 2 h ([1]; bone, read-out: Bone uptake) of the same compound?
A: 0.56 %ID/g

Q: And the tissue uptake at 0.5 h ([1]; brain, read-out: Brain uptake)?
A: 0.78 %ID/g

Q: What about the tissue uptake at 1 h ([1]; brain, read-out: Brain uptake) of the same compound?
A: 0.31 %ID/g

Q: And the tissue uptake at 2 h ([1]; brain, read-out: Brain uptake)?
A: 0.22 %ID/g

Q: And the tissue uptake at 0.5 h ([1]; heart, read-out: Heart uptake)?
A: 1.4 %ID/g

Q: What about the tissue uptake at 1 h ([1]; heart, read-out: Heart uptake) of the same compound?
A: 1 %ID/g

Q: And the tissue uptake at 2 h ([1]; heart, read-out: Heart uptake)?
A: 0.47 %ID/g

Q: What about the tissue uptake at 0.5 h [1, 5] of the same compound?
A: 1.43 %ID/g

Q: What about the tissue uptake at 1 h [1, 5] of the same compound?
A: 1.03 %ID/g

Q: What about the tissue uptake at 2 h [1, 5] of the same compound?
A: 0.65 %ID/g

Q: And the tissue uptake at 0.5 h [1, 6]?
A: 1.75 %ID/g

Q: And the tissue uptake at 1 h [1, 6]?
A: 1.64 %ID/g

Q: And the tissue uptake at 2 h [1, 6]?
A: 0.66 %ID/g

Q: What about the tissue uptake at 0.5 h [1, 7] of the same compound?
A: 37.5 %ID/g

Q: What about the tissue uptake at 1 h [1, 7] of the same compound?
A: 35.4 %ID/g

Q: What about the tissue uptake at 2 h [1, 7] of the same compound?
A: 25.7 %ID/g

Q: And the tissue uptake at 0.5 h ([1]; liver, read-out: Liver uptake)?
A: 1.52 %ID/g

Q: And the tissue uptake at 1 h ([1]; liver, read-out: Liver uptake)?
A: 1.33 %ID/g

Q: What about the tissue uptake at 2 h ([1]; liver, read-out: Liver uptake) of the same compound?
A: 0.88 %ID/g

Q: And the tissue uptake at 0.5 h ([1]; lung, read-out: Lung uptake)?
A: 0.93 %ID/g

Q: What about the tissue uptake at 1 h ([1]; lung, read-out: Lung uptake) of the same compound?
A: 0.74 %ID/g

Q: And the tissue uptake at 2 h ([1]; lung, read-out: Lung uptake)?
A: 0.49 %ID/g

Q: And the tissue uptake at 0.5 h [1, 8]?
A: 0.53 %ID/g

Q: And the tissue uptake at 1 h [1, 8]?
A: 0.31 %ID/g

Q: What about the tissue uptake at 2 h [1, 8] of the same compound?
A: 0.2 %ID/g

Q: What about the tissue to tissue ratio at 0.5 h [1, 9] of the same compound?
A: 0.05 ± 0.004

Q: What about the tissue to tissue ratio at 1 h [1, 9] of the same compound?
A: 0.05 ± 0.002

Q: And the tissue to tissue ratio at 2 h [1, 9]?
A: 0.03 ± 0.004

Q: And the tissue to tissue ratio at 0.5 h [1, 10]?
A: 1.15 ± 0.09

Q: And the tissue to tissue ratio at 1 h [1, 10]?
A: 1.23 ± 0.05

Q: What about the tissue to tissue ratio at 2 h [1, 10] of the same compound?
A: 0.78 ± 0.16

Q: What about the tissue to tissue ratio at 2 h ([1]; tumor / muscle, read-out: Tumor-to-muscle (T/M) uptake ratio) of the same compound?
A: 5.5 ± 3.65

Q: What about the “Tumor-to-muscle (T/M) uptake ratio” value ([2]; 30 min) of the same compound?
A: 3.87±1.97

Q: And the “Tumor-to-muscle (T/M) uptake ratio” value ([2]; 60 min)?
A: 6.20±2.67

Q: And the Kidneys uptake ([2]; 30 min)?
A: 37.47 ± 2.57 % ID/g

Q: What about the Liver uptake ([2]; 30 min) of the same compound?
A: 1.52 ± 0.11 % ID/g

Q: And the Tumor uptake ([2]; 30 min)?
A: 1.75±0.05 % ID/g

Q: What about the Kidneys uptake ([2]; 60 min) of the same compound?
A: 35.40 ± 0.92 % ID/g

Q: And the Liver uptake ([2]; 60 min)?
A: 1.33 ± 0.06 % ID/g

Q: And the Tumor uptake ([2]; 60 min)?
A: 1.64±0.03 % ID/g

Q: And the Kidneys uptake ([2]; 120 min)?
A: 25.70 ± 3.35 % ID/g

Q: What about the Liver uptake ([2]; 120 min) of the same compound?
A: 0.88 ± 0.20 % ID/g

Q: And the Tumor uptake ([2]; 120 min)?
A: 0.66±0.06 % ID/g

Q: What about the tissue to tissue ratio at 1 h ([3]; HepG2 tumor / kidneys, read-out: Tumor-to-kidneys (T/K) uptake ratio) of the same compound?
A: 0.09 ± 0.01

Q: And the tissue to tissue ratio at 0.5 h [3, 11]?
A: 1.77 ± 0.2

Q: What about the tissue to tissue ratio at 1 h [3, 11] of the same compound?
A: 2 ± 0.18

Q: What about the tissue to tissue ratio at 2 h [3, 11] of the same compound?
A: 1.28 ± 0.25

Q: What about the tissue to tissue ratio at 0.5 h [3, 12] of the same compound?
A: 9.11 ± 0.79

Q: And the tissue to tissue ratio at 1 h [3, 12]?
A: 12.2 ± 0.62

Q: And the tissue to tissue ratio at 2 h [3, 12]?
A: 6.2 ± 1.8

Q: And the tissue uptake at 0.5 h ([3]; bone, read-out: Bone uptake)?
A: 0.47 %ID/g

Q: What about the tissue uptake at 1 h ([3]; bone, read-out: Bone uptake) of the same compound?
A: 0.43 %ID/g

Q: And the tissue uptake at 2 h ([3]; bone, read-out: Bone uptake)?
A: 0.55 %ID/g

Q: And the tissue uptake at 0.5 h ([3]; brain, read-out: Brain uptake)?
A: 0.1 %ID/g

Q: What about the tissue uptake at 1 h ([3]; brain, read-out: Brain uptake) of the same compound?
A: 0.11 %ID/g

Q: And the tissue uptake at 2 h ([3]; brain, read-out: Brain uptake)?
A: 0.22 %ID/g

Q: And the tissue uptake at 0.5 h ([3]; heart, read-out: Heart uptake)?
A: 1.04 %ID/g

Q: And the tissue uptake at 1 h ([3]; heart, read-out: Heart uptake)?
A: 0.91 %ID/g

Q: And the tissue uptake at 2 h ([3]; heart, read-out: Heart uptake)?
A: 0.37 %ID/g

Q: What about the tissue uptake at 0.5 h [3, 5] of the same compound?
A: 1.09 %ID/g

Q: What about the tissue uptake at 1 h [3, 5] of the same compound?
A: 1.3 %ID/g

Q: What about the tissue uptake at 2 h [3, 5] of the same compound?
A: 0.46 %ID/g

Q: And the tissue uptake at 0.5 h [3, 6]?
A: 3.13 %ID/g

Q: What about the tissue uptake at 1 h [3, 6] of the same compound?
A: 3.37 %ID/g

Q: What about the tissue uptake at 2 h [3, 6] of the same compound?
A: 1.3 %ID/g

Q: And the tissue uptake at 0.5 h [3, 7]?
A: 39.4 %ID/g

Q: And the tissue uptake at 1 h [3, 7]?
A: 36.9 %ID/g

Q: And the tissue uptake at 2 h [3, 7]?
A: 29.3 %ID/g

Q: What about the tissue uptake at 0.5 h ([3]; liver, read-out: Liver uptake) of the same compound?
A: 1.8 %ID/g

Q: And the tissue uptake at 1 h ([3]; liver, read-out: Liver uptake)?
A: 1.7 %ID/g

Q: And the tissue uptake at 2 h ([3]; liver, read-out: Liver uptake)?
A: 1.04 %ID/g

Q: And the tissue uptake at 0.5 h ([3]; lung, read-out: Lung uptake)?
A: 0.69 %ID/g

Q: And the tissue uptake at 1 h ([3]; lung, read-out: Lung uptake)?
A: 0.59 %ID/g

Q: And the tissue uptake at 2 h ([3]; lung, read-out: Lung uptake)?
A: 0.34 %ID/g

Q: And the tissue uptake at 0.5 h [3, 8]?
A: 0.35 %ID/g

Q: What about the tissue uptake at 1 h [3, 8] of the same compound?
A: 0.28 %ID/g

Q: What about the tissue uptake at 2 h [3, 8] of the same compound?
A: 0.22 %ID/g

Q: And the tissue to tissue ratio at 0.5 h [3, 9]?
A: 0.08 ± 0.01

Q: And the tissue to tissue ratio at 2 h [3, 9]?
A: 0.04 ± 0.01
